Results on one compound are retold here after article PMC10541198, “Specific quinone reductase 2 inhibitors reduce metabolic burden and reverse Alzheimer’s disease phenotype in mice” (The Journal of Clinical Investigation, 2023).

Several values for one entry are separate records, joined by “and”; a condition that tells them apart may be missing. Equal entries are not always repeated.

This test deals with GFAP. In words: IHC of GFAP (astrocyte activation) in 5xFAD brain sections. Format: in vivo, mouse. The following applies: for Figure 9E, IHC signal: individual animals. The text has this:
Following the behavioral experiments, we assessed brain pathologies associated with AD present in the 5xFAD mice ([37]). Therefore, 5 days following the last behavioral experiment, and 1 month after the start of YB-537 consumption, mice were sacrificed, and coronal brain sections were used for IHC. Since the CA1 region of the hippocampus is affected during AD pathogenesis ([37]), and this brain region is involved in the behavioral paradigms used here, we acquired images of CA1. This was done with an Olympus IX83 confocal microscope using the same settings, antibodies, and exposures in all mice. Images were analyzed using Imaris (Bitplane; see methods). For each mouse, 3 coronal sections were used per antibody. In each section, the same region of CA1 was acquired, using the same image frame size and resolution, at all possible depths of the section — using a Z-stack of the whole section — to allow measurement of the fluorescent antibody marker volume, which was normalized to the brain volume from which it was taken. First, we measured oxidative stress, as indicated by 4-HNE ([38]) (Abcam, ab48506).
Perfused and fixed brain slices were blocked with 10% normal donkey serum (DNS) and 0.2% triton (Sigma-Aldrich) in PBS. Antibodies, including 4-HNE (AbCam, ab48506), Iba1 (AbCam, ab5076), AT-8 (Thermo, MN1020), Amyloid β (AbCam, ab201060), diluted in PBS with 10% DNS, were incubated at 4°C overnight. Secondary antibodies including donkey-anti-goat Alexa Fluor 568 (AbCam, ab175704), donkey-anti-mouse Cy 5 (Jackson Immuno Research, 715-175-151), and donkey-anti-rabbit DyLight 488 (AbCam, ab98488) all diluted 1:500 in PBS with 1% BSA, were applied to the slices at RT for 2 hours the next day. Slices were mounted onto glass slides using DAPI containing Vectashield (H-1200). Images were taken using a confocal microscope (Olympus IX83). Three slices were used per mouse per antibody. Tiling images of the dorsal CA1 and cortex (Bregma: –1.58mm to –2.30mm) were taken using ×20 objective, acquiring a Z-stack of the whole section. Analysis of the images was done blind by an experimenter unaware of the experimental conditions or details, using Imaris (Bitplane) software. A surface reconstruction module was used to extract the data as volumes of the used markers (4-HNE, phospho-tau, amyloid β, GFAP, and Iba1). Marker volume and intensity were normalized to the corresponding brain volume. The normalized value was averaged for each triplicate and presented here. […]
Brains were then briefly removed and placed in chilled, 4% PFA for 48 h, f oll owe d by immersion in 30% sucrose in 0.1 M PBS for a furt her 48 h. Bra i ns wer e t h e n stored at -80°C, until t he y were sliced into 40µm coronal sections usinga Lei ca CM 1950cryostat. Sli ces were then washed x3 in PBS and bl oc ke d for 1 h at RT using 10% normal donkey serum (DNS) and 0.2% triton (Sigma-Aldrich) in PBS. Antibodies, including 4- HNE (1:500, AbCam, ab48506), Iba1 (1:2,000, AbCam, ab5076), GFAP (Abcam, ab53554), phospho- tau (1:1,000, Thermo, MN1020) and amyloid β (1:1,000, AbCam, ab201060) diluted in PBS with 10% DNS were incubated at 4°C overnight. The next day, the slices were washed x3 times in PBS, and secondary antibodies including donkey anti goat A l e x a Fluor 568 (AbCam, ab175704), donkey anti-mouse Cy 5 (Jackson Immuno Research, 715- 175- 151) and donkey anti-rabbit DyLight 488 (AbCam, ab98488) all diluted 1:500 in PBS with 1% BSA, were applied to the slices at RT for 2 h. Following the incubation, the slices were washed x3 times in PBS, mounted onto gl ass slides, were uniformly covered in DAPI containing Vectashield (H-1200) and coverslips were a dde d. […]

In the case of `Cc1ccc(-c2cn3cccc(C)c3n2)cc1S(=O)(=O)N1CCNCC1` [YB-537], the “GFAP normalized volume (individual mice)” value is, setting by setting: (CA1, 5xFAD 1 month, Females) 0.0219 and 0.0268 and 0.0382 and 0.0442 and 0.0260 and 0.0233 and 0.0143; (CA1, 5xFAD 1 month, Males) 0.0303 and 0.0430 and 0.0365 and 0.0251 and 0.0258 and 0.0274 and 0.0223 and 0.0292 and 0.0263; (CA1, 5xFAD 1 month, Males + Females) 0.0303 and 0.0430 and 0.0365 and 0.0251 and 0.0258 and 0.0442 and 0.0260 and 0.0233 and 0.0143 and 0.0219 and 0.0268 and 0.0382 and 0.0274 and 0.0223 and 0.0292 and 0.0263. Moreover, the GFAP vs vehicle entry (CA1, 5xFAD 1 month, Females) is recorded as “unchanged”; the GFAP vs vehicle entry (CA1, 5xFAD 1 month, Males) is “unchanged”; the GFAP vs vehicle entry (CA1, 5xFAD 1 month, total population) is “unchanged”; the GFAP vs vehicle result (cortex, 5xFAD 1 month, females) is on record as “not significantly reduced”; the GFAP vs vehicle entry (cortex, 5xFAD 1 month, males) was “significantly reduced”; the GFAP vs vehicle result (cortex, 5xFAD 1 month, total population) was “significantly reduced”. Besides, the “Figure 9E, IHC signal” value runs as follows: (Cortex) 0.0026 and 0.0035 and 0.0044 and 0.0272 and 0.0046 and 0.0194 and 0.0258 and 0.0029 and 0.0033; (Hippocampus) 0.0259 and 0.0223 and 0.0094 and 0.0129 and 0.0279 and 0.0329 and 0.0343 and 0.0281 and 0.0220.
